Test results taken from paper PMC3429785 (Bioconjugate chemistry, 2012).

How the values were obtained:
[1] = test system: HXB2 luciferase reporter pseudovirions (HOS-CD4-CXCR4 target cells); assay: Pseudovirion infectivity assay, HXB2; assay type: cell-based, HIV-1; conditions: HXB2 strain
[2] = test system: JRFL luciferase reporter pseudovirions (HOS-CD4-CCR5 target cells); assay: Pseudovirion infectivity assay, JRFL; assay type: cell-based, HIV-1; conditions: JRFL strain

## C34-PEG2-Chol: C-peptide (C34) cholesterol conjugate with short PEG2 linker [reference compound]
[1]
  fold improved potency of cholesterol conjugate compared to C34: ~ 40 fold

## C34-PEG11-Chol: C-peptide (C34) cholesterol conjugate with PEG11 linker
[1]
  additional fold improvement in potency over short PEG2 linker: 2 fold

## C34-PEG80-Chol: C-peptide (C34) cholesterol conjugate with PEG80 linker
[2]
  fold worse than the optimal PEG length: 4 fold
